Biological target: T1, ER (Homo sapiens, UniProt P03372)
T1 construct: host or cells: T47D and MCF7 human breast cancer cells
T1 sequence (P03372 1-595): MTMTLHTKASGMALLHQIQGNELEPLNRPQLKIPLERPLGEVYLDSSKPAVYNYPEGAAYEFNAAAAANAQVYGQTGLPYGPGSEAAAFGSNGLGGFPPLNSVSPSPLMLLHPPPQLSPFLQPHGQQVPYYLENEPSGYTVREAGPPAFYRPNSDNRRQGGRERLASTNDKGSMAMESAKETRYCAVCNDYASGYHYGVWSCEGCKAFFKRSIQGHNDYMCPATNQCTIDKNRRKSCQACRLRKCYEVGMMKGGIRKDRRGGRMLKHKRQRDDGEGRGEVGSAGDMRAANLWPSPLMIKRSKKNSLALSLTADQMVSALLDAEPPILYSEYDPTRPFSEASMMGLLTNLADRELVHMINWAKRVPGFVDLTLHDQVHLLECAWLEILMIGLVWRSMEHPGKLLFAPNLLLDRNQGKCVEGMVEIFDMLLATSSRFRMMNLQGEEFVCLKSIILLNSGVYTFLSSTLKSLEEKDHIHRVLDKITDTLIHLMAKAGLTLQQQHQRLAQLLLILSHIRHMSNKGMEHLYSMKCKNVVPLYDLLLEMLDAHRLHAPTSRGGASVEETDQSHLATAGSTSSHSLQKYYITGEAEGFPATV
Assay: ER degradation activity, in-cell western blot analysis in T47D cells
Assay type: cell-based
Conditions: compounds 16 hours, Table A does not say whether T47D or MCF7, read-out: Potency (DC50)
Outline: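 Cells were seeded overnight, exposed to diluted compounds for 16 hours, then stained with primary antibodies and with infrared-labelled secondary antibodies (1:1000, 1 h RT). Plates were scanned on a CLX reader, and ER levels were normalised to DMSO-treated wells.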

Row | DC50 [nM] | Structure (SMILES)
1 | 10 to 100 | COc1c2c(cc3c1C(=O)N(C1CCC(=O)NC1=O)C3=O)CN(CC(=O)N1CCC3(CC1)CCN(c1ccc([C@@H]4c5ccc(O)cc5CC[C@@H]4c4ccccc4)cc1)CC3)C2 (stereo partly drawn) [E 420, 2-(2,6-dioxopiperidin-3-yl)-6-(2-(9-(4-((1R,2S)-6-hydroxy-2-phenyl-1,2,3,4-tetrahydronaphthalen-1-yl)phenyl)-3,9-diazaspiro[5.5]undecan-3-yl)-2-oxoethyl)-4-methoxy-6,7-dihydropyrrolo[3,4-f]isoindole-1,3(2H,5H)-dione]
2 | > 100 | O=C1CCC(N2C(=O)c3cc4c(cc3C2=O)CN(CC(=O)N2CCC3(CC2)CCN(c2ccc([C@H]5c6ccc7[nH]ncc7c6CC[C@H]5c5ccccc5)cc2)CC3)C4)C(=O)N1 (stereo partly drawn) [E 422, 2-(2,6-dioxopiperidin-3-yl)-6-(2-oxo-2-(9-(4-((6S,7R)-7-phenyl-6,7,8,9-tetrahydro-3H-benzo[e]indazol-6-yl)phenyl)-3,9-diazaspiro[5.5]undecan-3-yl)ethyl)-6,7-dihydropyrrolo[3,4-f]isoindole-1,3(2H,5H)-dione]
3 | 10 to 100 | O=C1CCC(N2C(=O)c3cc4c(cc3C2=O)CN(CC(=O)N2CCC3(CC2)CCN(c2ccc([C@@H]5c6ccc7[nH]ncc7c6CC[C@@H]5c5ccccc5)cc2)CC3)C4)C(=O)N1 (stereo partly drawn) [E 423, 2-(2,6-dioxopiperidin-3-yl)-6-(2-oxo-2-(9-(4-((6R,7S)-7-phenyl-6,7,8,9-tetrahydro-3H-benzo[e]indazol-6-yl)phenyl)-3,9-diazaspiro[5.5]undecan-3-yl)ethyl)-6,7-dihydropyrrolo[3,4-f]isoindole-1,3(2H,5H)-dione]
4 | 10 to 100 | C[C@@H]1Cc2c(ccc3[nH]ncc23)[C@@H](c2c(F)cc(NC3CN(C(=O)[C@H]4CC[C@@H](N5Cc6cc7c(cc6C5)C(=O)N(C5CCC(=O)NC5=O)C7=O)CC4)C3)cc2F)N1CC(F)F (some centres unmarked) [E 424]
5 | < 10 | C[C@@H]1Cc2c(ccc3[nH]ncc23)[C@@H](c2c(F)cc(NC3CN(C(=O)[C@H]4CC[C@H](N5Cc6cc7c(cc6C5)C(=O)N(C5CCC(=O)NC5=O)C7=O)CC4)C3)cc2F)N1CC(F)F (some centres unmarked) [E 425]
6 | > 100 | O=C1CCC(N2C(=O)c3cc4c(cc3C2=O)CN(CC(=O)N2CCC3(CC2)CCN(c2ccc([C@H]5c6ccc(O)cc6CC[C@H]5c5ccccc5)cc2)CC3)C4)C(=O)N1 (stereo partly drawn) [E 437, 2-(2,6-dioxopiperidin-3-yl)-6-(2-(9-(4-((1S,2R)-6-hydroxy-2-phenyl-1,2,3,4-tetrahydronaphthalen-1-yl)phenyl)-3,9-diazaspiro[5.5]undecan-3-yl)-2-oxoethyl)-6,7-dihydropyrrolo[3,4-f]isoindole-1,3(2H,5H)-dione]

The remaining lines, values behind:

Row | Structure (SMILES) | DC50 [nM]
7 | COc1cc([C@H]2CC[C@@H](C(=O)N3CCC(N4Cc5cc6c(cc5C4)C(=O)N(C4CCC(=O)NC4=O)C6=O)CC3)CC2)ncc1[C@@H]1c2[nH]c3ccccc3c2C[C@@H](C)N1CC(F)F (stereo partly drawn) [E 396, 6-(1-((1S,4s)-4-(5-((1R,3R)-2-(2,2-difluoroethyl)-3-methyl-2,3,4,9-tetrahydro-1H-pyrido[3,4-b]indol-1-yl)-4-methoxypyridin-2-yl)cyclohexane-1-carbonyl)piperidin-4-yl)-2-(2,6-dioxopiperidin-3-yl)-6,7-dihydropyrrolo[3,4-f]isoindole-1,3(2H,5H)-dione] | > 100
8 | COc1cc([C@H]2CC[C@H](C(=O)N3CCC(N4Cc5cc6c(cc5C4)C(=O)N(C4CCC(=O)NC4=O)C6=O)CC3)CC2)ncc1[C@@H]1c2[nH]c3ccccc3c2C[C@@H](C)N1CC(F)F (stereo partly drawn) [E 397, 6-(1-((1R,4r)-4-(5-((1R,3R)-2-(2,2-difluoroethyl)-3-methyl-2,3,4,9-tetrahydro-1H-pyrido[3,4-b]indol-1-yl)-4-methoxypyridin-2-yl)cyclohexane-1-carbonyl)piperidin-4-yl)-2-(2,6-dioxopiperidin-3-yl)-6,7-dihydropyrrolo[3,4-f]isoindole-1,3(2H,5H)-dione] | > 100
9 | CN(c1ccc([C@@H]2c3ccc(O)cc3CC[C@@H]2c2ccccc2)cc1)C1CN(C[C@H]2CC[C@H](C(=O)N3Cc4cc5c(cc4C3)C(=O)N(C3CCC(=O)NC3=O)C5=O)CC2)C1 (stereo partly drawn) [E 398, 2-(2,6-dioxopiperidin-3-yl)-6-((1R,4r)-4-((3-((4-((1R,2S)-6-hydroxy-2-phenyl-1,2,3,4-tetrahydronaphthalen-1-yl)phenyl)(methyl)amino)azetidin-1-yl)methyl)cyclohexane-1-carbonyl)-6,7-dihydropyrrolo[3,4-f]isoindole-1,3(2H,5H)-dione] | > 100
10 | C[C@@H]1Cc2c([nH]c3ccccc23)[C@@H](c2ncc(C3=CCC(C(=O)N4CCC(N5Cc6cc7c(cc6C5)C(=O)N(C5CCC(=O)NC5=O)C7=O)CC4)CC3)cc2F)N1CC(F)F (stereo partly drawn) [E 399, 6-(1-(4-(6-((1S,3R)-2-(2,2-difluoroethyl)-3-methyl-2,3,4,9-tetrahydro-1H-pyrido[3,4-b]indol-1-yl)-5-fluoropyridin-3-yl)cyclohex-3-ene-1-carbonyl)piperidin-4-yl)-2-(2,6-dioxopiperidin-3-yl)-6,7-dihydropyrrolo[3,4-f]isoindole-1,3(2H,5H)-dione] | > 100
11 | C[C@@H]1Cc2c([nH]c3ccccc23)[C@@H](c2c(F)cc(C3CCC(C(=O)N4CCC(N5Cc6cc7c(cc6C5)C(=O)N(C5CCC(=O)NC5=O)C7=O)CC4)CC3)cc2F)N1CC(F)(F)CO (stereo partly drawn) [E 400, 6-(1-(4-(4-((1R,3R)-2-(2,2-difluoro-3-hydroxypropyl)-3-methyl-2,3,4,9-tetrahydro-1H-pyrido[3,4-b]indol-1-yl)-3,5-difluorophenyl)cyclohexane-1-carbonyl)piperidin-4-yl)-2-(2,6-dioxopiperidin-3-yl)-6,7-dihydropyrrolo[3,4-f]isoindole-1,3(2H,5H)-dione] | > 100
12 | COc1nc(C2CCC(C(=O)N3CCC(N4Cc5cc6c(cc5C4)C(=O)N(C4CCC(=O)NC4=O)C6=O)CC3)CC2)ccc1[C@@H]1c2[nH]c3ccccc3c2C[C@@H](C)N1CC(F)F (stereo partly drawn) [E 402, 6-(1-(4-(5-((1R,3R)-2-(2,2-difluoroethyl)-3-methyl-2,3,4,9-tetrahydro-1H-pyrido[3,4-b]indol-1-yl)-6-methoxypyridin-2-yl)cyclohexane-1-carbonyl)piperidin-4-yl)-2-(2,6-dioxopiperidin-3-yl)-6,7-dihydropyrrolo[3,4-f]isoindole-1,3(2H,5H)-dione] | > 100
13 | COc1cc([C@H]2CC[C@H](C(=O)N3CCC(N4Cc5cc6c(cc5C4)C(=O)N(C4CCC(=O)NC4=O)C6=O)CC3)CC2)ccc1[C@@H]1c2[nH]c3ccccc3c2C[C@@H](C)N1CC(F)F (stereo partly drawn) [E 403, 6-(1-((1R,4r)-4-(4-((1R,3R)-2-(2,2-difluoroethyl)-3-methyl-2,3,4,9-tetrahydro-1H-pyrido[3,4-b]indol-1-yl)-3-methoxyphenyl)cyclohexane-1-carbonyl)piperidin-4-yl)-2-(2,6-dioxopiperidin-3-yl)-6,7-dihydropyrrolo[3,4-f]isoindole-1,3(2H,5H)-dione] | 10 to 100
14 | COc1cc([C@H]2CC[C@@H](C(=O)N3CCC(N4Cc5cc6c(cc5C4)C(=O)N(C4CCC(=O)NC4=O)C6=O)CC3)CC2)ccc1[C@@H]1c2[nH]c3ccccc3c2C[C@@H](C)N1CC(F)F (stereo partly drawn) [E 404, 6-(1-((1S,4s)-4-(4-((1R,3R)-2-(2,2-difluoroethyl)-3-methyl-2,3,4,9-tetrahydro-1H-pyrido[3,4-b]indol-1-yl)-3-methoxyphenyl)cyclohexane-1-carbonyl)piperidin-4-yl)-2-(2,6-dioxopiperidin-3-yl)-6,7-dihydropyrrolo[3,4-f]isoindole-1,3(2H,5H)-dione] | > 100
15 | COc1cc(C2CCC(C(=O)N3CCC(N4Cc5cc6c(cc5C4)C(=O)N(C4CCC(=O)NC4=O)C6=O)CC3)CC2)cnc1[C@@H]1c2[nH]c3ccccc3c2C[C@@H](C)N1CC(F)F (stereo partly drawn) [E 405, 6-(1-(4-(6-((1S,3R)-2-(2,2-difluoroethyl)-3-methyl-2,3,4,9-tetrahydro-1H-pyrido[3,4-b]indol-1-yl)-5-methoxypyridin-3-yl)cyclohexane-1-carbonyl)piperidin-4-yl)-2-(2,6-dioxopiperidin-3-yl)-6,7-dihydropyrrolo[3,4-f]isoindole-1,3(2H,5H)-dione] | > 100
16 | C[C@@H]1Cc2c([nH]c3ccccc23)[C@@H](c2ncc(C3CCC(C(=O)N4CCC(N5Cc6cc7c(cc6C5)C(=O)N(C5CCC(=O)NC5=O)C7=O)CC4)CC3)cc2F)N1CC(F)F (stereo partly drawn) [E 406, 6-(1-(4-(6-((1S,3R)-2-(2,2-difluoroethyl)-3-methyl-2,3,4,9-tetrahydro-1H-pyrido[3,4-b]indol-1-yl)-5-fluoropyridin-3-yl)cyclohexane-1-carbonyl)piperidin-4-yl)-2-(2,6-dioxopiperidin-3-yl)-6,7-dihydropyrrolo[3,4-f]isoindole-1,3(2H,5H)-dione] | > 100
17 | C[C@@H]1Cc2c(ccc3[nH]ncc23)[C@@H](c2ccc(N3CCC4(CCN(C(=O)CN5Cc6cc7c(cc6C5)C(=O)N(C5CCC(=O)NC5=O)C7=O)CC4)CC3)cn2)N1CC(F)(F)F (stereo partly drawn) [E 413, 2-(2,6-dioxopiperidin-3-yl)-6-(2-(9-(6-((6S,8R)-8-methyl-7-(2,2,2-trifluoroethyl)-6,7,8,9-tetrahydro-3H-pyrazolo[4,3-f]isoquinolin-6-yl)pyridin-3-yl)-3,9-diazaspiro[5.5]undecan-3-yl)-2-oxoethyl)-6,7-dihydropyrrolo[3,4-f]isoindole-1,3(2H,5H)-dione] | < 10

Reference: patent publication US20240190880A1 (THE REGENTS OF THE UNIVERSITY OF MICHIGAN, priority 2021, published 2024)
